Measured values from patent publication US20120156216A1, “Methods and Compositions for Treatment of Tumor Metastasis” (priority 2009, published 2012).

Assays:
[1] = general statement on statins; cited from earlier work
[2] = test system: CTGF in M12 prostate cancer cells; test: Suppression of endogenous CTGF by statins in M12 prostate cancer cells; format: cell-based, human; conditions: 1 μM, four days, FIG. 3A
Text: The effect of statins on the TGF-β- and CTGF-induced EMT in prostate cancer cells was further tested. Several stains are available with different pharmacokinetics and biotransformation rates. […] The hydrophilic statins are absorbed preferentially by the liver, where they inhibit production of cholesterol. More lipophilic statins are readily distributed to sites beyond the liver, where they inhibit intracellular synthesis of cholesterol. These different pharmacokinetic properties of statins may greatly influence effectiveness against advanced prostate cancer in vivo.

[3] = test system: CTGF in MDA 231 breast cancer cells; test: Suppression of endogenous CTGF by statins in MDA 231 breast cancer cells; format: cell-based, human; conditions: 1 μM, four days, FIG. 3B
[4] = test system: radiation-induced CTGF in M12 prostate cancer cells; test: Radiation-induced CTGF expression in M12 prostate cancer cells; format: cell-based, human; conditions: 1 μM, four days, FIG. 9A
Text: In an effort to determine the mechanism of radiation-induced adverse effects, such as radio-resistance and increased potential of metastasis in human cancer, M12 prostate cancer cells and BEAS-2B-CSC lung cancer cells were exposed to increasing amounts of radiation, ranging from 0 to 10 Grays (Gy). To detect protein expression for CTGF and CTGF-regulated protein fibronectin, M12 and BEAS-2B-CSC cells were harvested 3 days after irradiation, and culture media (CM) and cell lysates (CL) were separated by SDS-PAGE. Western immunoblotting was performed with antibodies specific for CTGF, fibronectin, and α-tubulin. […] As a control for protein loading, α-tubulin expression was also determined.
The ability of statins to inhibit radiation-induced CTGF expression was assessed in M12 prostate cancer cells and BEAS-2B-CSC lung cancer cells.

[5] = test system: EMT markers in M12 prostate cancer cells; test: CTGF-induced (AdCTGF) EMT marker expression in M12 prostate cancer cells, RT-PCR and Western immunoblot; format: cell-based, human
Text: In order to identify direct effect of CTGF on EMT induction in human cancer, an adenoviral expression vector was used. M12 (FIGS. 5 A-B) and M2182 (FIGS. 5 C-D) prostate cancer cells were infected with either an empty adenoviral constructs or an adenoviral vector expressing CTGF (AdCTGF) for either 18 hrs or 2 days to collect total RNAs for RT-PCR (FIGS. 5 A and C) and proteins for Western immunoblot analysis (FIGS. 5 B and D), respectively.
M12 (FIGS. 6 A-B) and M2182 (FIGS. 6 C-D) prostate cancer cells were infected with either an empty adenoviral construct (ADEV) or an adenoviral vector expressing CTGF (AdCTGF) for either 18 hrs or 2 days to collect total RNAs for RT-PCR (FIGS. 5 A and C) or proteins for Western immunoblot analysis (FIGS. 5 B and D), respectively.

[6] = test system: CTGF and fibronectin in normal immortalized human lung fibroblasts; test: Basal and TGF-β1-induced CTGF and fibronectin expression in stromal fibroblasts; format: cell-based
[7] = stromal cells treated with TGF-β1 0 ng/ml to 25 ng/ml, 3 days, Western immunoblot, FIG. 4A

Compound | solubility (fat soluble or water soluble) [1] | suppression of CTGF [2] | suppression of CTGF [3] | suppression of radiation-induced CTGF expression [4] | other results
CC(C)n1c(/C=C/[C@@H](O)C[C@@H](O)CC(=O)O)c(-c2ccc(F)cc2)c2ccccc21 (relative stereo) [fluvastatin, (3R,5S,6E)-rel-7-[3-(4-fluorophenyl)-1-(1-methylethyl)-1H-indol-2-yl]-3,5--dihydroxy-6-heptenoic acid] | more fat soluble |  |  |  | 
CC[C@H](C)C(=O)O[C@H]1C[C@@H](C)C=C2C=C[C@H](C)[C@H](CC[C@@H]3C[C@@H](O)CC(=O)O3)[C@H]21 [lovastatin, 2(S)-2-methyl-butanoic acid (1S,3R,7S,8S,8aR)-1,2,3,7,8,8a-hexahydro-3,7-dimethyl-8-[2-[(2R,4R)-tetrahydro-4-hydroxy-6-oxo-2H-pyran-2-yl]ethyl]-1-na-phthalenyl ester] | more fat soluble | significant suppression | significant suppression | significant suppression | 
CCC(C)C(=O)OC1CCC=C2C=C[C@H](C)[C@H](CC[C@@H]3CC(O)CC(=O)O3)[C@H]21 (stereo partly drawn) [mevastatin, ((1S,7S,8S,8aR)-8-{2-[(2R,4R)-4-hydroxy-6-oxotetrahydro-2H-pyran-2-yl]ethyl}-7-methyl-1,2,3,7,8,8a-hexahydronaphthalen-1-yl (2S)-2-methylbutanoate);] | more water soluble |  |  |  | 
CC[C@H](C)C(=O)O[C@H]1C[C@H](O)C=C2C=C[C@H](C)[C@H](CC[C@@H](O)C[C@@H](O)CC(=O)O)[C@H]21 [pravastatin] | more water soluble | significant suppression | significant suppression | significant suppression | 
CCC(C)(C)C(=O)O[C@H]1C[C@@H](C)C=C2C=C[C@H](C)[C@H](CC[C@@H]3C[C@@H](O)CC(=O)O3)[C@H]21 [simvastatin, 2,2-dimethyl-butanoic acid (1S,3R,7S,8S,8aR)-1,2,3,7,8,8a-hexahydro-3,7-dimethyl-8-[2-[(2R,4R)-tetrahydro-4-hydroxy-6-oxo-2H-pyran-2-yl]ethyl]-1-naphthalenyl ester] |  | significant suppression | significant suppression |  | epithelial marker E-cadherin expression ([5]; M12 cells, AdCTGF, 5 μM simvastatin, mRNA level and protein level, FIGS. 6 A-B): increase; adenoviral transduced IGFBP-rP2/CTGF expression ([5]; prostate cancer cells, simvastatin at concentrations, 2 μM, 4 μM, 5 μM): did not affect; basal CTGF expression ([6]; stromal fibroblasts, simvastatin 0.1 μM to 2.0 μM, 20 hours, semi-quantitative RT-PCR, FIG. 4B): suppression
TGF-β1: transforming growth factor beta, potent inducer of CTGF, used to treat stromal fibroblasts |  |  |  |  | production of CTGF ([6]; TGF-β1 at 10 ng/ml, FIG. 4A): robust production; expression of CTGF [6, 7]: significantly increased; expression of fibronectin [6, 7]: significantly increased
